Source: article PMC11620503 (Antimicrobial Agents and Chemotherapy, 2024)
Values after ≈ are worked out from the molar mass of the structure shown. Like-named read-outs stand apart in the source and are kept apart here.

Tests used:
[1] = system: E. coli CDC-151 (NDM-5), PBP3 mutations; test: MIC, broth microdilution; type: cell-based; settings: Escherichia coli, fixed BLI concentration (μg/mL) in parentheses in label
[2] = system: E. coli CDC-150 (NDM-5), PBP3 mutations; test: MIC, broth microdilution; type: cell-based; settings: Escherichia coli, fixed BLI concentration (μg/mL) in parentheses in label
[3] = system: MEM-nonsusceptible Enterobacterales with metallo-carbapenemases; test: MIC, broth microdilution; type: cell-based; settings: for CLSI MIC interpretation I (intermediate) / CLSI MIC interpretation R (resistant) / CLSI MIC interpretation S (susceptible): CLSI breakpoints, marked c: breakpoints for β-lactam alone; for MIC50 / MIC90: fixed concentration (μg/mL) in label
[4] = system: E. coli CDC-137 (NDM-6), PBP3 mutations; test: MIC, broth microdilution; type: cell-based; settings: Escherichia coli, fixed BLI concentration (μg/mL) in parentheses in label
[5] = system: E. coli CDC-162 (NDM-7), PBP3 mutations; test: MIC, broth microdilution; type: cell-based; settings: Escherichia coli
[6] = system: E. coli CDC-119 (NDM-1), PBP3 mutations; test: MIC, broth microdilution; type: cell-based; settings: Escherichia coli
[7] = system: Staphylococcus aureus ATCC 6538P/methicillin-sensitive; test: MIC, reference strains of aerobic bacteria; type: cell-based; settings: ATCC6538P
[8] = system: Klebsiella pneumoniae ATCC 700603; test: MIC, reference strains of aerobic bacteria; type: cell-based; settings: ATCC700603
[9] = system: Moraxella catarrhalis ATCC 25238; test: MIC, reference strains of aerobic bacteria; type: cell-based; settings: ATCC25238
[10] = system: Streptococcus pseudoporcinus ATCC BAA-1381; test: MIC, reference strains of aerobic bacteria; type: cell-based; settings: ATCCBAA1381
[11] = system: Klebsiella oxytoca KUB4313; test: MIC, reference strains of aerobic bacteria; type: cell-based
[12] = system: Staphylococcus saprophyticus KUB4845; test: MIC, reference strains of aerobic bacteria; type: cell-based
[13] = system: Staphylococcus epidermidis KUB4871/methicillin-sensitive; test: MIC, reference strains of aerobic bacteria; type: cell-based
[14] = system: Micrococcus luteus ATCC 9341; test: MIC, reference strains of aerobic bacteria; type: cell-based; settings: ATCC9341
[15] = system: Klebsiella aerogenes NCTC 10006 (ATCC 13048); test: MIC, reference strains of aerobic bacteria; type: cell-based
[16] = system: Serratia marcescens NBRC 12648 (ATCC 14756); test: MIC, reference strains of aerobic bacteria; type: cell-based
[17] = system: Enterococcus faecium NCTC 12204; test: MIC, reference strains of aerobic bacteria; type: cell-based; settings: NCTC12204
[18] = system: Streptococcus pneumoniae ATCC 49619; test: MIC, reference strains of aerobic bacteria; type: cell-based; settings: ATCC49619
[19] = system: Escherichia coli ATCC 25922; test: MIC, reference strains of aerobic bacteria; type: cell-based; settings: ATCC25922
[20] = system: Acinetobacter calcoaceticus NBRC12552 (ATCC 14987); test: MIC, reference strains of aerobic bacteria; type: cell-based
[21] = system: Streptococcus agalactiae ATCC 13813; test: MIC, reference strains of aerobic bacteria; type: cell-based; settings: ATCC13813
[22] = system: Staphylococcus lugdunensis KUB4804; test: MIC, reference strains of aerobic bacteria; type: cell-based
[23] = system: Acinetobacter baumannii ATCC 19606; test: MIC, reference strains of aerobic bacteria; type: cell-based; settings: ATCC19606
[24] = system: P. aeruginosa CDC-90 (KPC-5); test: Lethal mouse model of systemic infection; settings: Pseudomonas aeruginosa, in Mus musculus, sc, read-out: ED50 of MEM (95% confidence intervals)
[25] = system: Stenotrophomonas maltophilia KUB3619; test: MIC, reference strains of aerobic bacteria; type: cell-based
SHV-12 = SHV-12 (Klebsiella pneumoniae, UniProt P0A3M1, L31Q); test: Ki app determination (Waley's method)
SHV-12, sequence (P0A3M1 22-286 L31Q): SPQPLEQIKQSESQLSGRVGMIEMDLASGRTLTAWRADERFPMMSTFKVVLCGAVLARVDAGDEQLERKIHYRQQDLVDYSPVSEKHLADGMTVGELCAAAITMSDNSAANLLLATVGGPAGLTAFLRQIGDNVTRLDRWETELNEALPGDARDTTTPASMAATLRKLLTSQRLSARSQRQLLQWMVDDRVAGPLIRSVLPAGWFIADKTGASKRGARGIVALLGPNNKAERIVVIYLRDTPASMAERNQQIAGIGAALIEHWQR

[26] = system: Clostridioides difficile ATCC BAA-1803; test: MIC, agar dilution, reference strains of anaerobic bacteria; type: cell-based; settings: ATCCBAA1803
[27] = Intrinsic antibacterial activity, MIC; type: cell-based
OXA-23 = OXA-23 (Acinetobacter baumannii, UniProt Q9L4P2); test: Ki app determination (Waley's method)
OXA-23, sequence (Q9L4P2 18-273): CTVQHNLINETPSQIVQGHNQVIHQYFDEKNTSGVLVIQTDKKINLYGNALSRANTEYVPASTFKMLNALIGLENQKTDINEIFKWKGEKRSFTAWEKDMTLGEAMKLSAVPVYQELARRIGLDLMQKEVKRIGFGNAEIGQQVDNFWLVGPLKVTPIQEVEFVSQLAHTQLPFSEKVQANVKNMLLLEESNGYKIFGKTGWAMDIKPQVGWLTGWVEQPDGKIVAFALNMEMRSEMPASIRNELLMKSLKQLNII

[28] = system: Bacteroides ovatus KUB3009; test: MIC, agar dilution, reference strains of anaerobic bacteria; type: cell-based
[29] = system: Prevotella melaninogenica KUB3005; test: as above; type: cell-based
[30] = system: Bacteroides thetaiotaomicron KUB2984; test: as above; type: cell-based
OXA-66 = OXA-66 (Acinetobacter baumannii, UniProt Q58XD2); test: Ki app determination (Waley's method)
OXA-66, sequence (Q58XD2 entry or part of it): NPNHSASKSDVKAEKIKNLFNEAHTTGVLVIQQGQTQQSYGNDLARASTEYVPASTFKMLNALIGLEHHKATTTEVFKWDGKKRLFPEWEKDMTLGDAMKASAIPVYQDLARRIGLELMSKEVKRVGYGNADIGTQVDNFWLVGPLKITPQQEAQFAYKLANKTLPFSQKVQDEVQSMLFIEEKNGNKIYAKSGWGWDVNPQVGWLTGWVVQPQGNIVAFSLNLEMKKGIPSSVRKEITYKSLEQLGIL

[31] = system: Finegoldia magna ATCC 29328; test: MIC, agar dilution, reference strains of anaerobic bacteria; type: cell-based; settings: ATCC29328
[32] = system: Clostridium perfringens ATCC 13124; test: microbe, parasite or virus in culture; type: cell-based; settings: ATCC13124
KPC-38 = KPC-38 (Klebsiella pneumoniae, UniProt Q9F663); test: Ki app determination (Waley's method); settings: read-out: Ki app, means from three independent studies
KPC-38, sequence (Q9F663 25-293 limits assumed): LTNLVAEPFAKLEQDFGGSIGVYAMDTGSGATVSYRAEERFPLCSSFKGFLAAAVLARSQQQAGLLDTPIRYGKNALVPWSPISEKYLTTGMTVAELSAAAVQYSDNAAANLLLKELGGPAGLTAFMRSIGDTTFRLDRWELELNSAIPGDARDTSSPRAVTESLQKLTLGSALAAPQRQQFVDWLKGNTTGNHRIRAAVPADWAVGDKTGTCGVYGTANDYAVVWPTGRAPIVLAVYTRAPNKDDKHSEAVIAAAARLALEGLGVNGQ

NDM-1 = NDM-1 (Klebsiella pneumoniae, UniProt C7C422); test: Ki app determination (Waley's method)
NDM-1, sequence (C7C422 29-270, looked up, species assumed): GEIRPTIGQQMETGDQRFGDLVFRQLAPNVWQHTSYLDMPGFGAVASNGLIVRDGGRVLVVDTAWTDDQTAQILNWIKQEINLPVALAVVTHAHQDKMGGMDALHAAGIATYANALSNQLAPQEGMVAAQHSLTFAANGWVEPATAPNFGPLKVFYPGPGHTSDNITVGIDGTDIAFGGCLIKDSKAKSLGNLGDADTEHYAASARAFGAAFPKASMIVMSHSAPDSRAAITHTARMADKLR

VIM-2 = VIM-2 (Escherichia coli, UniProt Q5U7L7); test: Ki app determination (Waley's method)
[33] = system: 20 anaerobic strains (including Clostridium perfringens, Atopobium rimae, Bacteroides spp., and Prevotella spp.); type: cell-based
[34] = MEM-nonsusceptible Enterobacterales with metallo-carbapenemases (55), cefiderocol 54 isolates, tigecycline: FDA breakpoints
[35] = MEM-nonsusceptible Enterobacterales with metallo-carbapenemases (55), cefiderocol 54 isolates, read-out: MIC50
[36] = MEM-nonsusceptible Enterobacterales with metallo-carbapenemases (55), cefiderocol 54 isolates, read-out: MIC90
[37] = MEM-nonsusceptible Enterobacterales with metallo-carbapenemases (41), CDC AR Bank

## CC(C)(O/N=C(\C(=O)N[C@@H]1C(=O)N2C(C(=O)[O-])=C(C[N+]3(CCNC(=O)c4ccc(O)c(O)c4Cl)CCCC3)CS[C@H]12)c1csc(N)n1)C(=O)O [FDC, cefiderocol]
[1]
  MIC: 4 µg/mL (≈ 5.32 µM)
[2]
  MIC: 4 µg/mL (≈ 5.32 µM)
[3]; [34]
  CLSI MIC interpretation I (intermediate): 7.4%
  CLSI MIC interpretation R (resistant): 1.9%
  CLSI MIC interpretation S (susceptible): 90.7%
[3]; [35]
  MIC50: 1 µg/mL (≈ 1.33 µM)
[3]; [36]
  MIC90: 4 µg/mL (≈ 5.32 µM)
[4]
  MIC: 2 µg/mL (≈ 2.66 µM)
[5]
  MIC: 8 µg/mL (≈ 10.6 µM)
[6]
  MIC: 0.5 µg/mL (≈ 0.665 µM)

## C[C@@H](O)[C@H]1C(=O)N2C(C(=O)O)=C(S[C@@H]3CN[C@H](C(=O)N(C)C)C3)[C@H](C)[C@H]12 [MEM, meropenem]
[1]
  MIC: 8 µg/mL (≈ 20.9 µM)
[7]
  MIC: 0.06 µg/mL (≈ 0.156 µM)
[8]
  MIC: ≤ 0.03 µg/mL
[9]
  MIC: ≤ 0.03 µg/mL
[10]
  MIC: ≤ 0.03 µg/mL
[2]
  MIC: > 32 µg/mL
[11]
  MIC: ≤ 0.03 µg/mL
[12]
  MIC: 0.12 µg/mL (≈ 0.313 µM)
[13]
  MIC: 0.06 µg/mL (≈ 0.156 µM)
[3]; [37]
  CLSI MIC interpretation I (intermediate): 12.2%
  CLSI MIC interpretation R (resistant): 87.8%
  CLSI MIC interpretation S (susceptible): 0%
  MIC50: 16 µg/mL (≈ 41.7 µM)
  MIC90: >32 µg/mL
[3]; [34]
  CLSI MIC interpretation I (intermediate): 12.7%
  CLSI MIC interpretation R (resistant): 87.3%
  CLSI MIC interpretation S (susceptible): 0%
[3]; [35]
  MIC50: 16 µg/mL (≈ 41.7 µM)
[3]; [36]
  MIC90: > 32 µg/mL
[14]
  MIC: 0.06 µg/mL (≈ 0.156 µM)
[15]
  MIC: ≤ 0.03 µg/mL
[4]
  MIC: 32 µg/mL (≈ 83.4 µM)
[16]
  MIC: ≤ 0.03 µg/mL
[5]
  MIC: 32 µg/mL (≈ 83.4 µM)
[17]
  MIC: 32 µg/mL (≈ 83.4 µM)
[18]
  MIC: 0.06 µg/mL (≈ 0.156 µM)
[19]
  MIC: ≤ 0.03 µg/mL
[6]
  MIC: 32 µg/mL (≈ 83.4 µM)
[20]
  MIC: 0.12 µg/mL (≈ 0.313 µM)
[21]
  MIC: ≤ 0.03 µg/mL
[22]
  MIC: 0.12 µg/mL (≈ 0.313 µM)
[23]
  MIC: 0.5 µg/mL (≈ 1.3 µM)
[24]
  ED50: 54.8 mg/kg
[25]
  MIC: > 32 µg/mL

## N[C@@H](C(=O)N1CC(Oc2ccc3c(c2C(=O)O)OB(O)CC3)C1)c1c[nH]cn1 [KSP-1007, 7-({1-[(2R)-2-amino-2-(1H-imidazol-4-yl)acetyl]azetidin-3-yl}oxy)-2-hydroxy-3,4-dihydro-2H-1,2-benzoxaborinine-8-carboxylic acid]
[7]
  MIC: 8 µg/mL (≈ 20.7 µM)
[8]
  MIC: > 128 µg/mL
SHV-12
  Ki: 53.5 ± 12.2 nM
[26]
  MIC: > 256 µg/mL
[27]
  MIC: ≥ 64 µg/mL
[9]
  MIC: 64 µg/mL (≈ 166 µM)
[10]
  MIC: 1 µg/mL (≈ 2.59 µM)
OXA-23
  Ki: 4.07 ± 0.237 nM
[11]
  MIC: 128 µg/mL (≈ 331 µM)
[12]
  MIC: 4 µg/mL (≈ 10.4 µM)
[13]
  MIC: 4 µg/mL (≈ 10.4 µM)
[28]
  MIC: 128 µg/mL (≈ 331 µM)
[14]
  MIC: 128 µg/mL (≈ 331 µM)
[29]
  MIC: 4 µg/mL (≈ 10.4 µM)
[15]
  MIC: > 128 µg/mL
[30]
  MIC: 32 µg/mL (≈ 82.9 µM)
[16]
  MIC: > 128 µg/mL
OXA-66
  Ki: 5.78 ± 0.654 nM
[31]
  MIC: 128 µg/mL (≈ 331 µM)
[17]
  MIC: > 128 µg/mL
[32]
  MIC: 2 µg/mL (≈ 5.18 µM)
KPC-38
  Ki: 0.836 ± 0.414 nM
[18]
  MIC: 2 µg/mL (≈ 5.18 µM)
[19]
  MIC: 128 µg/mL (≈ 331 µM)
[20]
  MIC: > 128 µg/mL
[21]
  MIC: 4 µg/mL (≈ 10.4 µM)
[22]
  MIC: 4 µg/mL (≈ 10.4 µM)
[23]
  MIC: > 128 µg/mL
NDM-1
  Ki: 126 ± 58.1 nM
VIM-2
  Ki: 1210 nM
[25]
  MIC: > 128 µg/mL
[33]
  MICs, range: 2 to 256 µg/mL
